Paper PMC4105520, “Effects of a novel cyclic RGD peptidomimetic on cell proliferation, migration and angiogenic activity in human endothelial cells” (Vascular Cell, 2014)

How the values were obtained:
[1] = in the same or very close concentration range as the anti-angiogenic activity; cited from earlier work
Procedure: In our experiments, the effects of cyclo[DKP-RGD] 1 on HUVEC activity were tested in resting conditions as well as in the presence of a culture medium enriched with growth factors known to promote angiogenesis such as VEGF, EGF, IGF-I and FGF2 or after addition of the pro-inflammatory chemokine IL-8, which has a key role in the regulation of pathological angiogenesis. According to our results, cyclo[DKP-RGD]

[2] = tested on: αvβ5 integrin; conditions: read-out: IC50, inhibition of vitronectin binding to αvβ5 integrin; cited from earlier work
Source text: (§1) HUVEC represent a valid in vitro model which provides seminal insights into the cellular and molecular events leading to neovascularization in response to inflammation and hypoxia in cancer, ischemic events, and in embryogenesis. As anticipated in the introduction, integrins are key actors in angiogenesis and vascular homeostasis, acting as promoters of endothelial cell-matrix interactions. It has been recognized that pharmacological inhibition of the αvβ3 subtype suppresses angiogenesis in many experimental models and αvβ3 antagonists (i.e. antibodies, peptides and peptidomimeti ...

[3] = tested on: αvβ3 integrin; conditions: read-out: IC50, inhibition of vitronectin binding to αvβ3 integrin; cited from earlier work
Source text: as §1

[4] = tested on: human pancreatic carcinoma MIA-PaCa2; conditions: cited from earlier work
[5] = tested on: ovarian carcinoma SKOV3; conditions: cited from earlier work
[6] = tested on: Akt phosphorylation in HUVEC; experiment: Western blot analysis of Akt phosphorylation; type: cell-based, human; conditions: 5 h
Procedure: Cells grown in 60-mm dishes were treated for 5 h with 1 μM cyclo[DKP-RGD] 1. The cells were then rinsed twice in ice-cold PBS and 200 μl of the cell lysis buffer (composition: 50 mM Tris–HCl pH 7.4, 1% v/v NP40, 0.25% w/v sodium deoxycholate, 1 mM phenylmethylsulphonyl-fluoride, 1 mM Na3VO4, 1 mM EDTA, 30 mM sodium pyrophosphate, 1 mM NaF, 1 mg/ml leupeptin, 1 mg/ml pepstatin A, 1 mg/ml aprotinin and 1 mg/ml microcystin) was added to the dishes. After scraping, cells were sonicated for 10 s, centrifuged at 12000 g for 5 min at 4°C and the amount of proteins in the supernatant was measured using the BCA protein assay. For western blot analysis, 20 μg of proteins were separated by 10% SDS–PAGE at 150 V for 2 h and blotted onto […] nitrocellulose membranes at 90 mA for 16 h. The membranes were first blocked for 2 h in TRIS buffered saline solution (TBST, composition: TRIS 10 mM, NaCl 150 mM, 0.1% Tween 20) plus 5% low fat dry milk (TBSTM) and then incubated with the appropriate antibody diluted 1:1000 in TBSTM, for 16 h at 4°C under gentle agitation. The membranes were rinsed three times in TBST and then incubated for 2 h at 21°C with the secondary antibody diluted 1:10000 in TBSTM. Membranes were then rinsed three times in TBST and luminescence was detected by using the appropriate kit, and densitometric analysis was performed as previously reported.

[7] = tested on: HUVEC; experiment: Cell viability by flow cytometry, annexin V/PI staining; conditions: 24 h, mean ± SD, n = 4, P > 0.05 vs control
[8] = tested on: ovarian carcinoma IGROV-1; conditions: cited from earlier work
[9] = tested on: HUVEC; experiment: Proliferation assay, ELISA of BrdU incorporation; type: cell-based, human; conditions: 24 h, data not shown
Procedure: To assess HUVEC proliferation, 1×10^4 cells were seeded in duplicate in a 96-well plate and cultured for 24 h without or with cyclo[DKP-RGD] 1 at different concentrations. Proliferation was then measured by a colorimetric immunoassay, based on the ELISA measurement of bromodeoxyuridine (BrdU) incorporation during DNA synthesis. The absorbance (ABS) of the samples was determined by means of a spectrophotometer (Model 680, Bio-Rad Laboratories, Hercules, CA, USA) with wavelength set at 450 nm, and finally expressed as the difference between BrdU positive and negative samples, expressed as Optical Density (O.D.).

[10] = tested on: HUVEC; experiment: Angiogenesis assay, network formation on Matrigel; type: cell-based, human; conditions: 5 h
Procedure: To assess angiogenic activity, HUVEC 2.5×10^4 cells were seeded in a 24-well plate coated with 100 μl/well of Matrigel previously polymerized for 1 h at 37°C. […] 1 under either resting or stimulated conditions. In some experiments IL-8 (10 nM) was used as pro-angiogenic stimulus. Network formation was evaluated by phase‒contrast microscopy using a fluorescence microscope (Axiovert 40CFL, Carl Zeiss S.p.A. Milan, Italy). Network formation was finally quantified in terms of mean number of loops per field as topological parameters and the total length of the branches. For the purpose of the analysis, loops were defined as any complete ring formed by HUVEC, while open ramifications were considered as branches. The total branch length (pixels) and the number of loops were quantified using the ImageJ image analysis software (http://rsbweb.nih.gov/ij/).

[11] = tested on: HUVEC
[12] = tested on: human pancreatic carcinoma PANC-1; conditions: cited from earlier work
[13] = tested on: αv integrin subunit mRNA in HUVEC; experiment: Real time PCR, mRNA of integrin subunit αv; type: cell-based, human; conditions: 1 μM, 5 h, mean ± SD of 3 experiments; for αv mRNA, 2^-Δct ×10^2: GAPDH housekeeping
Procedure: (§2) Cells were treated for 5 h in the presence or absence of 1 μM cyclo[DKP-RGD] 1 in different growth conditions, as previously described. At the end of the treatment, RNA extraction was performed using the Qiazol lysis reagent. Primers were designed by using the “Primer3 input” software (http://frodo.wi.mit.edu/cgi-bin/primer3/primer3.cgi/primer3_www.cgi) and the specificity of each primer was controlled by the BLAST software (http://blast.ncbi.nlm.nih.gov) (Table 1). Real time PCR was performed as previously reported At the end of the reaction, a melting curve analysis was carried out to check for the presence of primer-dimers. Comparison of the expression of each gene was determined by using GAPDH as housekeeping gene. Each run was analyzed in duplicate and data are finally expressed as 2^-Δct.

[14] = tested on: β5 integrin subunit mRNA in HUVEC; experiment: Real time PCR, mRNA of integrin subunit β5; type: cell-based, human; conditions: 1 μM, 5 h, mean ± SD of 3 experiments; for β5 mRNA, 2^-Δct ×10^2: GAPDH housekeeping
Procedure: as §2

[15] = tested on: human osteosarcoma U2-OS; conditions: cited from earlier work
[16] = tested on: HUVEC; experiment: Cell migration, Boyden chamber assay; type: cell-based, human; conditions: for effect on spontaneous migration / effect on stimulated migration: 5 h at 37°C; for effect on stimulated migration: VEGF, EGF, IGF-I and FGF2 in bottom chamber
Procedure: Cell migration was measured by means of a Boyden chamber assay. Briefly, 1×10^5 HUVEC were seeded in the top well of the Boyden chamber, cyclo[DKP-RGD] 1 was added in the bottom or in the top compartment, and a 3 μm-pore cellulose nitrate filter was placed between the two compartments. Stimulated migration was assessed by putting VEGF, EGF, IGF-I, and FGF2 in the bottom chamber. After an incubation period of 5 h at 37°C, the filter was recovered, dehydrated, fixed, and finally stained with hematoxylin. Migration into the filter was quantified by measuring the distance (in μm) from the surface of the filter to the leading front of cells using an optical microscope (Axiolab, Carl Zeiss S.p.A. Milan, Italy).

[17] = tested on: β3 integrin subunit mRNA in HUVEC; experiment: Real time PCR, mRNA of integrin subunit β3; type: cell-based, human; conditions: 1 μM, 5 h, mean ± SD of 3 experiments; for β3 mRNA, 2^-Δct ×10^2: GAPDH housekeeping
Procedure: as §2

Substance: cyclo-[Arg-Gly-Asp-D-Phe-N(Me)-Val] (head to tail) [cilengitide]
- cytotoxic activity [1]: exhibit cytotoxic activity

Substance: cyclo[DKP-RGD] [cyclo[DKP-RGD] 1]
- IC50 [2]: 149 ± 25 nM
- IC50 [3]: 4.5 ± 1.1 nM
- cytotoxic effects [4]: lack of cytotoxic effects
- cytotoxic effects [5]: lack of cytotoxic effects
- phosphorylated Akt, % of control ([6]; basal conditions, 1×10^−6 M, n = 3, P = 0.001): 53.2 ± 7.9 % of control
- phosphorylated Akt ([6]; basal conditions, 1×10^−6 M, n = 3, P = 0.001, control 16241.7 ± 1763.3): 8702.7 ± 2008.7 optical density arbitrary units
- phosphorylated Akt ([6]; with VEGF, EGF, IGF-I, and FGF2, 1×10^−6 M, n = 3, P = 0.735, control 15406.0 ± 1218.8): 15174.7 ± 663.9 optical density arbitrary units
- viable cells (ANX-/PI-) ([7]; basal conditions, 1×10^−6 M): 85.4 ± 3.4%
- viable cells (ANX-/PI-) ([7]; with VEGF, EGF, IGF-I and FGF2, 1×10^−6 M): 86.8 ± 9.2%
- cytotoxic effects [8]: lack of cytotoxic effects
- effect on basal proliferation (BrdU incorporation) ([9]; basal conditions, up to 1×10^−5 M): did not significantly affect
- effect on stimulated proliferation (BrdU incorporation) ([9]; with VEGF, EGF, IGF-I and FGF2, up to 1×10^−5 M): did not significantly affect
- effect on angiogenesis induced by IL-8 ([10]; IL-8 10 nM, P < 0.01 vs control): significantly and profoundly decreased
- effect on angiogenesis (network formation: loops, branch length) ([10]; basal conditions): did not significantly affect
- effect on angiogenesis induced by VEGF, EGF, IGF-I, and FGF2 ([10]; stimulated conditions, P < 0.01 vs control): significantly and profoundly decreased
- effect on percentage of viable, early apoptotic, late apoptotic/necrotic or necrotic cells [11]: did not affect
- cytotoxic effects [12]: lack of cytotoxic effects
- αv mRNA, 2^-Δct ×10^2 ([13]; basal conditions): 6.59 ± 5.24
- αv mRNA, Ratio vs Control ([13]; basal conditions): 1.32 ± 0.57
- αv mRNA, 2^-Δct ×10^2 ([13]; with VEGF, EGF, IGF, and FGF): 15.09 ± 10.66
- αv mRNA, Ratio vs Control ([13]; with VEGF, EGF, IGF, and FGF): 1.28 ± 0.42
- β5 mRNA, 2^-Δct ×10^2 ([14]; basal conditions): 1.52 ± 1.34
- β5 mRNA, Ratio vs Control ([14]; basal conditions): 1.08 ± 0.07
- β5 mRNA, 2^-Δct ×10^2 ([14]; with VEGF, EGF, IGF, and FGF): 1.31 ± 1.13
- β5 mRNA, Ratio vs Control ([14]; with VEGF, EGF, IGF, and FGF): 1.34 ± 0.46
- cytotoxic effects [15]: lack of cytotoxic effects
- concentration of the peak of the bell-shaped effect on migration ([16]; Boyden chamber, not observed in the angiogenesis assay): about 1×10^−9 M
- effect on spontaneous migration ([16]; compound in bottom chamber): increased
- effect on stimulated migration ([16]; compound in bottom chamber): increased
- effect on spontaneous migration ([16]; compound in top chamber together with cells): increased
- effect on stimulated migration ([16]; compound in top chamber): decreased
- β3 mRNA, 2^-Δct ×10^2 ([17]; basal conditions): 0.91 ± 0.76
- β3 mRNA, Ratio vs Control ([17]; basal conditions): 1.08 ± 0.27
- β3 mRNA, 2^-Δct ×10^2 ([17]; with VEGF, EGF, IGF, and FGF): 1.41 ± 1.07
- β3 mRNA, Ratio vs Control ([17]; with VEGF, EGF, IGF, and FGF): 1.43 ± 0.35
